Assay results published in patent US9521846B2, “Template-fixed peptidomimetics with antimicrobial activity” (priority 2006, dated 2016).
Values after ≈ are worked out from the molar mass of the structure shown. Non-standard residues stand in square brackets, D forms with d. Residues, ends and D or L forms follow the SMILES beside them. Ala(cPr) = N[C@@H](CC1CC1)C(=O)O; Chg = N[C@H](C(=O)O)C1CCCCC1; Dab = NCC[C@H](N)C(=O)O; Aib = CC(C)(N)C(=O)O

Columns and labels:
P. aeruginosa ATCC 27853 = assay type: cell-based, Pseudomonas aeruginosa; details: ATCC 27853
Summary of the method: (§1)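 Peptide activity was measured by a modified NCCLS broth microdilution method in Mueller-Hinton broth with 0.02% BSA. An inoculum adjusted against a 0.5 McFarland standard to about 10^6 CFU/ml was mixed 1:1 with two-fold serial peptide dilutions.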

[1] = system: human red blood cells (hRBC); test: Hemolysis; assay type: cell-based; details: 100
[2] = system: Pseudomonas aeruginosa P1021913; assay type: cell-based; details: P1021913
Summary of the method: as §1

[3] = system: Pseudomonas aeruginosa IMP 1 Livermore 3140; assay type: cell-based; details: IMP 1 Livermore 3140
Summary of the method: as §1

[4] = system: Pseudomonas aeruginosa P1021903; assay type: cell-based; details: P1021903
Summary of the method: as §1

[5] = system: Pseudomonas aeruginosa P8191900; assay type: cell-based; details: P8191900
Summary of the method: as §1

HELA cells (Acc57) = test: Cytotoxicity assay, MTT reduction (LC 50, GI 50); assay type: cell-based
Summary of the method: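 Read-out was MTT reduction (A595) after 48 h peptide exposure (12.5–50 μM, triplicates) of HeLa cells plated at 7.0×10^3/well and precultured 24 h. Growth % was normalised to a time-zero reading. Linear trend interpolation gave the concentration at −50% growth (LC50) and at 50% growth (GI50).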

| SMILES | MIC P. aeruginosa ATCC 27853 (P. aeruginosa ATCC 27853) | Hemolysis at 100 μg/ml [1] | Average MIC (P. aeruginosa) | MIC P. aeruginosa P1021913 [2] | MIC P. aeruginosa IMP1 Livermore 3140 [3] | MIC P. aeruginosa P1021903 [4] | MIC P. aeruginosa P8191900 [5] | Cytotoxicity GI50 Hela cells (HELA cells (Acc57)) |
| --- | --- | --- | --- | --- | --- | --- | --- | --- |
| CC[C@H](C)[C@@H]1NC(=O)[C@H](Cc2c[nH]c3ccccc23)NC(=O)[C@H]([C@@H](C)O)NC(=O)[C@@H]2CCCN2C(=O)[C@H]2CCCN2C(=O)[C@H](CCN)NC(=O)[C@H](C2CCCCC2)NC(=O)[C@H](CCN)NC(=O)[C@H](CCN)NC(=O)[C@H](Cc2c[nH]c3ccccc23)NC(=O)[C@H](CCN)NC(=O)[C@H](CCN)NC(=O)[C@H](CCCCN)NC(=O)[C@H](CCN)NC1=O [Example 11] (cyclo(TWI[Dab]K[Dab][Dab]W[Dab][Dab][Chg][Dab][dP]P)) | 0.30 µg/mL (≈ 0.182 µM) | 0.5% | >1 µg/mL | 0.75 µg/mL (≈ 0.455 µM) | >2 µg/mL | 2.00 µg/mL (≈ 1.21 µM) | 1.00 µg/mL (≈ 0.606 µM) | 50 µM |
| CC[C@H](C)[C@@H]1NC(=O)[C@H](Cc2c[nH]c3ccccc23)NC(=O)[C@H]([C@@H](C)O)NC(=O)[C@@H]2CCCN2C(=O)[C@H]2CCCN2C(=O)[C@H](CCN)NC(=O)[C@H](CC2CC2)NC(=O)[C@H](CCN)NC(=O)[C@H](CCN)NC(=O)[C@H](Cc2c[nH]c3ccccc23)NC(=O)[C@H](CCN)NC(=O)[C@H](CCN)NC(=O)[C@H](CCCCN)NC(=O)[C@H](CCN)NC1=O [Example 37] (cyclo(TWI[Dab]K[Dab][Dab]W[Dab][Dab][Ala(cPr)][Dab][dP]P)) | 0.06 µg/mL (≈ 0.037 µM) | 0.5% | 0.42 µg/mL | 0.37 µg/mL (≈ 0.228 µM) | 1.17 µg/mL (≈ 0.722 µM) | 0.31 µg/mL (≈ 0.191 µM) | 0.18 µg/mL (≈ 0.111 µM) | 50 µM |
| CC[C@H](C)[C@@H]1NC(=O)[C@H](Cc2c[nH]c3ccccc23)NC(=O)[C@H]([C@@H](C)O)NC(=O)[C@@H]2CCCN2C(=O)[C@H]2CCCN2C(=O)[C@H](CCN)NC(=O)C(C)(C)NC(=O)[C@H](CCN)NC(=O)[C@H](CCN)NC(=O)[C@H](Cc2c[nH]c3ccccc23)NC(=O)[C@H](CCN)NC(=O)[C@H](CCN)NC(=O)[C@H](CCCCN)NC(=O)[C@H](CCN)NC1=O [Example 5] (cyclo(TWI[Dab]K[Dab][Dab]W[Dab][Dab][Aib][Dab][dP]P)) | 0.08 µg/mL (≈ 0.0502 µM) | 0.6% | 0.31 µg/mL | 0.21 µg/mL (≈ 0.132 µM) | 0.75 µg/mL (≈ 0.47 µM) | 0.21 µg/mL (≈ 0.132 µM) | 0.30 µg/mL (≈ 0.188 µM) | 50 µM |
| CC[C@H](C)[C@@H]1NC(=O)[C@H](Cc2c[nH]c3ccccc23)NC(=O)[C@H]([C@@H](C)O)NC(=O)[C@@H]2CCCN2C(=O)[C@H]2CCCN2C(=O)[C@H](CCN)NC(=O)[C@H](CC(=O)O)NC(=O)[C@H](CCN)NC(=O)[C@H](CCN)NC(=O)[C@H](Cc2c[nH]c3ccccc23)NC(=O)[C@H](CCN)NC(=O)[C@H](CCN)NC(=O)[C@H](CCCCN)NC(=O)[C@H](CCN)NC1=O [Example 14] (cyclo(TWI[Dab]K[Dab][Dab]W[Dab][Dab]D[Dab][dP]P)) | 0.21 µg/mL (≈ 0.129 µM) | 0.3% | >1 µg/mL | 0.65 µg/mL (≈ 0.4 µM) | >2 µg/mL | 0.31 µg/mL (≈ 0.191 µM) | 0.40 µg/mL (≈ 0.246 µM) | 12 µM |
| CC[C@H](C)[C@@H]1NC(=O)[C@H](Cc2c[nH]c3ccccc23)NC(=O)[C@H](C)NC(=O)[C@@H]2CCCN2C(=O)[C@H]2CCCN2C(=O)[C@H](CCN)NC(=O)[C@H](C(C)C)NC(=O)[C@H](CCN)NC(=O)[C@H](CCN)NC(=O)[C@H](Cc2c[nH]c3ccccc23)NC(=O)[C@H](CCN)NC(=O)[C@H](CCN)NC(=O)[C@H](CCN)NC(=O)[C@H](CCN)NC1=O [Example 23] (cyclo(AWI[Dab][Dab][Dab][Dab]W[Dab][Dab]V[Dab][dP]P)) | 1.00 µg/mL (≈ 0.645 µM) | 0.5% | >1 µg/mL | 1.25 µg/mL (≈ 0.806 µM) | >2 µg/mL | 1.50 µg/mL (≈ 0.967 µM) | 1.00 µg/mL (≈ 0.645 µM) | 13 µM |
